According to publication PMC10901950, “Neuroprotective and Anti-inflammatory Effects of Rubiscolin-6 Analogs with Proline Surrogates in Position 2” (Neurochemical Research, 2023):
Square brackets hold non-standard residues; d marks the D form. Ends that are not written are not given here. Peptide text beside a SMILES is read from it. Dmt = Cc1cc(O)cc(C)c1C[C@H](N)C(=O)O; Inp = O=C(O)C1CCNCC1

Key:
[1] = test system: LPS-stimulated RAW 264.7 cells; experiment: Lipid peroxidation in LPS-stimulated RAW 264.7 cells (DPPP probe); type: cell-based, mouse; conditions: 24 h; for decrease of membrane lipids' oxidation: lowest concentration used (0.1 µM)
Procedure: The level of lipid peroxidation was evaluated after RAW 264.7 cells incubation with peptides for 24 h. Then, the cells were loaded with 50 µM diphenyl-1-pyrenylphosphine (DPPP) probe for 15 min, and fluorescence was read at 360 nm excitation and 460 nm emission wavelengths.

[2] = test system: SH-SY5Y cells; experiment: Neuroprotection in 6-OHDA-treated SH-SY5Y cells (MTT); type: cell-based, human; conditions: for neuroprotection after pre-treatment with LY 294002: LY 294002 (PI3-K inhibitor) 20 µM; for neuroprotection after pre-treatment with LY 294002 / neuroprotective effect after pre-treatment with PD 98059: 30 min before peptide and 6-OHDA 100 µM; for neuroprotective effect after pre-treatment with PD 98059: PD 98059 (MEK 1 inhibitor) 50 µM; for peptide neuroprotection with opioid receptor antagonists: β-FNA 10 µM or NLT 10 µM 30 min before peptide (1 and/or 10 µM) and 6-OHDA 100 µM, 24 h
Procedure: The neuroprotective experiments were performed in an in vitro model of a human neuroblastoma cell line (SH-SY5Y) obtained from the German Collection of Microorganisms and Cell Cultures GmbH (DSMZ) Bank (ACC 209). Cells were cultured in Dulbecco’s Modified Eagle’s Medium: Nutrient Mixture F12 (DMEM:F12) supplemented with 1% antibiotic/antimycotic (Amphotericin B, Penicillin and Streptomycin) (Biowest, Nuaillé, France) and 10% (v/v) Fetal Bovine Serum (FBS) (Biowest, Riverside, MO, USA). The anti-inflammatory experiments were performed in an in vitro model of mouse macrophage-like RAW 264.7 cells, purchased from American Type Culture Collection (ATCC, Manassas, VA, USA). Cells were maintained in DMEM medium (Gibco™, Grand Island, NY) and supplemented with 10% bovine calf serum (BCS) (Gibco™, Grand Island, NY) and 1% penicillin–streptomycin (Sigma-Aldrich, St. Louis, MO, USA). Cell cultures were kept at 37 °C in 5% CO2/humidified air.
Cells were incubated with peptides (0.1–10 µM) for 24 h to assess their cytotoxic activity. In the neuroprotective model, SH-SY5Y cells were exposed to 6-OHDA (100 µM) in the absence/presence of peptide at non-toxic concentrations (0.1–10 µM). When needed, a 30 min pre-incubation step with β-funaltrexamine (β-FNA, µ-opioid receptor antagonist, 10 µM), naltrindole (NLT, δ-opioid receptor antagonist, 10 µM), 2’-amino-3’-methoxyflavone (PD 98059, MAPK kinase 1 (MEK 1) inhibitor, 50 µM) or 2-(4-morpholinyl)-8-phenyl-4H-1-benzopyran-4-one (LY 294002, PI3-K inhibitor, 20 µM). Stimulation was terminated by aspiration of the medium and adding 100 µL MTT (1.2 mM) per well. Cells were incubated for 1 h at 37 °C. After this time, MTT was removed, and 100 µL DMSO was added. The resulting absorbance was read in a microplate reader (Biotek, Epoch/2 microplate reader, Winooski, VT, USA) at 570 nm.
Cell metabolic activity (cytotoxicity) was calculated as the percentage of the value obtained for cells incubated with compounds compared to control cells treated with the medium.

[3] = test system: SH-SY5Y cells; experiment: Intracellular ROS production in 6-OHDA-treated SH-SY5Y cells; type: cell-based, human; conditions: 6-OHDA 100 µM; for decrease of ROS production stimulated by 6-OHDA: peptide at both 1 and 10 µM
Procedure: The detection of ROS generated in injured cells was evaluated using the 5(6)-carboxy-2ʹ,7ʹ-dichlorofluorescein diacetate (carboxy-H2DCFDA) reagent (Invitrogen, Bleiswijk, Netherlands). After incubation, cells were washed with ice-cold Phosphate-Buffer Saline (PBS). Then, the carboxyl-H2DCFDA (100 µL, 20 µM) reagent was added and incubated for 1 h at 37 °C. Finally, the fluorescence intensity was measured at wavelengths of […], and ROS levels were presented in percentage of control (non-treated cells).

[4] = Ferric reducing antioxidant power (FRAP); conditions: peptides 10 µM, 37 °C, 30 min, absorbance 593 nm; mean ± SEM
Procedure: FRAP assay adapted to microscale with minor modifications was used to measure the ferric reducing ability of peptides. Acetate buffer (0.3 M, pH 3.6), 2,4,6-Tris(2-pyridyl)-s-triazine (TPTZ, 10 mM prepared in 40 mM HCl), and ferric solutions (20 mM) were freshly mixed at a ratio of 10:1:1 and place in a 96-well microplate. Then, 198 µL of FRAP reagent and 2 µL of the peptide sample was mixed and incubated at 37 °C in the dark for 30 min. The absorbance was measured at 593 nm using a microplate reader (Bioteck, Epoch/2 microplate reader, Winooski, VT, USA). The difference between the absorbance of the test sample and the blank reading was calculated and expressed as µM of FeSO4/g of the peptide. FeSO4 was used as standard.

[5] = Oxygen radical absorption capacity (ORAC); conditions: peptides 10 µM, AAPH 12 mM, fluorescein; mean ± SEM
Procedure: The ability of peptides to neutralize the peroxyl radicals was evaluated in ORAC according to the described method. Peptides (20 µL) and fluorescein (120 µL; 70 nM) were placed in a microplate well and pre-incubated for 15 min at 37 °C. Then, 60 µL of 2,2ʹ-azobis (2-amidino-propane) dihydrochloride (AAPH) as a radical generator was added in a final concentration of 12 mM. The fluorescence was read at wavelengths of 458 nm (excitation) and 520 nm (emission) and recorded every minute for 240 min. A blank using phosphate buffer instead of […] and a calibration curve using Trolox as standard (1–8 µM, final concentration) were also carried on in each assay. Final results were presented in µmol of Trolox equivalents/ µM peptide (µmol TE/ µM peptide).

[6] = test system: SH-SY5Y cells; experiment: Mitochondrial membrane potential (JC-1) in 6-OHDA-treated SH-SY5Y cells; type: cell-based, human; conditions: 6-OHDA 100 µM, 6 h
Procedure: Mitochondrial function was assessed by monitoring changes in MMP (∆Ψm) using the fluorescent probe, JC-1 fluorescence dye (5,5′,6,6′-tetrachloro-1,1′,3,3′-tetraethyl-imidacarbocyanine iodide, Molecular Probes, T3168, Eugene, Oregon, USA). The assay was performed according to the method described by Silva et al.. Briefly, SH-SY5Y cells were exposed 6 h to 6-OHDA (100 μM) in the presence or absence of peptides. After incubation, cells were washed with ice-cold PBS, and then JC-1 reagent (3 µM, 200 µL) was added for 15 min at 37 °C. Afterwards, JC-1 was removed, and cells were washed with PBS. The formation of JC-1 aggregates (490 nm of excitation and 590 nm of emission) and the monomeric form of JC-1 (490 nm of excitation and 530 nm of emission) was accompanied simultaneously in the plate reader for 30 min. Results were expressed as the ratio of the monomers/aggregates of JC-1 in the percentage of control.

| Compound | decrease of membrane lipids' oxidation [1] | neuroprotection after pre-treatment with LY 294002 [2] | neuroprotective effect after pre-treatment with PD 98059 [2] | peptide neuroprotection with opioid receptor antagonists [2] | decrease of ROS production stimulated by 6-OHDA ([3]; 6 h) | effect on lipid peroxidation ([1]; 0.1-10 µM) | FRAP, ability to reduce iron ions [4] | ORAC, ability to neutralize the peroxyl radicals [5] | decrease of intracellular ROS levels stimulated by 6-OHDA ([3]; peptide 0.1 µM, 6 h) | effect on MMP changes caused by the neurotoxin ([6]; peptide 0.1-10 µM) | inhibition of peroxidation ([1]; 0.1 µM) | effect on ROS production ([3]; peptide 10 µM) | effect on MMP depolarization ([6]; peptide 10 µM) |
| --- | --- | --- | --- | --- | --- | --- | --- | --- | --- | --- | --- | --- | --- |
| CC(C)C[C@H](NC(=O)C1CCN(C(=O)[C@@H](N)Cc2ccc(O)cc2)CC1)C(=O)N[C@@H](CC(=O)O)C(=O)N[C@@H](CC(C)C)C(=O)N[C@@H](Cc1ccccc1)C(N)=O [analog 7, Tyr-Inp-Leu-Asp-Leu-Phe-NH2] (H-Y[Inp]LDLF-NH2) | ~10% | significantly weakened | didn’t inhibit | did not abolish | about 60% |  |  |  |  |  |  |  |  |
| YPLDLF [R-6, rubiscolin-6] |  |  |  |  |  | no effect | 1.09 ± 0.20 µM Eq. FeSO4/g of peptide | 2789 ± 131.6 µmol Eq. Trolox/g of peptide | about 70% | markedly decreased |  |  |  |
| CC(C)C[C@H](NC(=O)C1CCN(C(=O)[C@@H](N)Cc2ccc(O)cc2)CC1)C(=O)N[C@@H](CC(=O)O)C(=O)N[C@@H](CC(C)C)C(=O)N[C@@H](Cc1ccccc1)C(=O)O [analog 3, Tyr-Inp-Leu-Asp-Leu-Phe-OH] (H-Y[Inp]LDLF-OH) | ~10% | significantly weakened | didn’t inhibit | did not abolish | about 60% |  |  |  |  |  |  |  |  |
| Cc1cc(O)cc(C)c1C[C@H](N)C(=O)N1CCC(C(=O)N[C@@H](CC(C)C)C(=O)N[C@@H](CC(=O)O)C(=O)N[C@@H](CC(C)C)C(=O)N[C@@H](Cc2ccccc2)C(=O)O)CC1 [analog 5, Dmt-Inp-Leu-Asp-Leu-Phe-OH] (H-[Dmt][Inp]LDLF-OH) | ~10% | significantly weakened | didn’t inhibit | some slight µ- and δ-opioid receptor antagonist effect is evident | about 60% |  |  |  |  |  | most significant inhibition |  |  |
| YPLDLF-NH2 [analog 6, Tyr-Pro-Leu-Asp-Leu-Phe-NH2] |  |  |  |  |  |  | 0.87 ± 0.22 µM Eq. FeSO4/g of peptide | 3143 ± 164.4 µmol Eq. Trolox/g of peptide |  |  |  |  |  |
| Cc1cc(O)cc(C)c1C[C@H](N)C(=O)N1CCC[C@H]1C(=O)N[C@@H](CC(C)C)C(=O)N[C@@H](CC(=O)O)C(=O)N[C@@H](CC(C)C)C(=O)N[C@@H](Cc1ccccc1)C(=O)O [analog 1, Dmt-Pro-Leu-Asp-Leu-Phe-OH] (H-[Dmt]PLDLF-OH) |  | significantly weakened | didn’t inhibit | did not abolish |  |  |  |  |  |  |  | couldn’t decrease | couldn’t decrease |
